Legend:
[1] = target: T1, recombinant human ACC1 (rhACC1) (Homo sapiens, UniProt Q13085, DEL44-44); assay: recombinant hACC1 Transcreener assay (ADP detection FP); assay type: biochemical; details: recombinant hACC1 Transcreener assay, 50 μM ATP, minimum of n=3; read-out: hACC1
T1 construct: infected with recombinant baculovirus containing full length human ACC1 cDNA; made in house; host or cells: SF9 insect cells (baculovirus)
Protocol: For example direct inhibition of ACC activity, for the compound of Formula (1) was determined using preparations of recombinant human ACC1 (rhACC1) and recombinant human ACC2 (rhACC2).
[1] Preparation of rhACC1. Two liters of SF9 cells, infected with recombinant baculovirus containing full length human ACC1 cDNA, were suspended in ice-cold lysis buffer (25 mM Tris, pH 7.5; 150 mM NaCl; 10% glycerol; 5 mM imidazole (EMD Bioscience; Gibbstown, N.J.); 2 mM TCEP (BioVectra; Charlottetown, Canada); Benzonase nuclease (10000 U/100 g cell paste; Novagen; Madison, Wis.); EDTA-free protease inhibitor cocktail (1 tab/50 mL; Roche Diagnostics; Mannheim, Germany). Cells were lysed by 3 cycles of freeze-thaw and centrifuged at 40,000×g for 40 minutes (4° C.). Supernatant was directly loaded onto a HisTrap FF crude column (GE Healthcare; Piscataway, N.J.) and eluted with an imidazole gradient up to 0.5 M over 20 column volumes (CV). ACC1-containing fractions were pooled and diluted 1:5 with 25 mM Tris, pH 7.5, 2 mM TCEP, 10% glycerol and direct loaded onto a CaptoQ (GE Healthcare) column and eluted with an NaCl gradient up to 1 M over 20 CV's. Phosphate groups were removed from purified ACC1 by incubation with lambda phosphatase (100 U/10 μM target protein; New England Biolabs; Beverly, Mass.) for 14 hours at 4° C.; okadaic acid was added (1 μM final concentration; Roche Diagnostics) to inhibit the phosphatase. Purified ACC1 was exchanged into 25 mM Tris, pH 7.5, 2 mM TCEP, 10% glycerol, 0.5 M NaCl by 6 hour dialysis at 4° C. Aliquots were prepared and frozen at −80° C.
[2] […] The final conditions for the assay were 50 mM HEPES, pH 7.2, 10 mM MgCl2, 7.5 mM tripotassium citrate, 2 mM DTT, 0.1 mg/mL BSA, 30 μM acetyl-CoA, 50 μM ATP, and 10 mM KHCO3. Typically, a 10 μl reaction was run for 120 min at 25° C., and 10 μl of Transcreener stop and detect buffer was added and the combination incubated at room temp for an additional 1 hour.
All of the examples in both assays were run with a minimum of n=3.

[2] = target: T2, recombinant human ACC2 (rhACC2) (Homo sapiens, UniProt O00763, V2141I); assay: recombinant hACC2 Transcreener assay (ADP detection FP); assay type: biochemical; details: 50 μM ATP, minimum of n=3
T2 construct: a full length Cytomax clone of ACC2 was purchased from Cambridge Bioscience Limited; made in house; host or cells: CHO cells (tetracycline-inducible, pcDNA5 FRT TO-TOPO)
Protocol: For example direct inhibition of ACC activity, for the compound of Formula (1) was determined using preparations of recombinant human ACC1 (rhACC1) and recombinant human ACC2 (rhACC2). Representative sequences of the recombinant human ACC1 and ACC2 that can be used in the assay are provided in FIG. 1 (SEQ ID NO. 1) and FIG. 2 (SEQ. ID NO. 2), respectively.
[3] Preparation of rhACC2. Human ACC2 inhibition was measured using purified recombinant human ACC2 (hrACC2). Briefly, a full length Cytomax clone of ACC2 was purchased from Cambridge Bioscience Limited and was sequenced and subcloned into PCDNA5 FRT TO-TOPO (Invitrogen, Carlsbad, Calif.). The ACC2 was expressed in CHO cells by tetracycline induction and harvested in 5 liters of DMEM/F12 with glutamine, biotin, hygromycin and blasticidin with 1 μg/mL tetracycline (Invitrogen, Carlsbad, Calif.). The conditioned medium containing ACC2 was then applied to a Softlink Soft Release Avidin column (Promega, Madison, Wis.) and eluted with 5 mM biotin. 4 mgs of ACC2 were eluted at a concentration of 0.05 mg/mL (determined by A280) with an estimated purity of 95% ([…]). The purified ACC2 was dialyzed in 50 mM Tris, 200 mM NaCl, 4 mM DTT, 2 mM EDTA, and 5% glycerol. The pooled protein was frozen and stored at −80° C., with no loss of activity upon thawing. For measurement of ACC2 activity and assessment of ACC2 inhibition, test compounds were dissolved in DMSO and added to the rhACC2 enzyme as a 5× stock with a final DMSO concentration of 1%.
[4] Measurement of human ACC2 inhibition. hACC2 was assayed in a Costar #3676 (Costar, Cambridge, Mass.) 384-well plate using the Transcreener ADP detection FP assay kit (Bellbrook Labs, Madison, Wis.) using the manufacturer's recommended conditions for a 50 uM ATP reaction. The final conditions for the assay were 50 mM HEPES, pH 7.2, 5 mM MgCl2, 5 mM tripotassium citrate, 2 mM DTT, 0.1 mg/mL BSA, 30 μM acetyl-CoA, 50 μM ATP, and 8 mM KHCO3. Typically, a 10 μl reaction was run for 50 min at 25° C., and 10 μl of Transcreener stop and detect buffer was added and the combination incubated at room temp for an additional 1 hour. The data was acquired on an Envision Fluorescence reader (Perkinelmer) using a 620 excitation Cy5 FP general dual mirror, 620 excitation Cy5 FP filter, 688 emission (S) and a 688 (P) emission filter.
The results using the recombinant hACC1 and recombinant hACC2 Transcreener assays described above are summarized in the table below for the Compounds of Formula (I) exemplified in the Examples above. All of the examples in both assays were run with a minimum of n=3.

T2 sequence (O00763 whole entry V2141I): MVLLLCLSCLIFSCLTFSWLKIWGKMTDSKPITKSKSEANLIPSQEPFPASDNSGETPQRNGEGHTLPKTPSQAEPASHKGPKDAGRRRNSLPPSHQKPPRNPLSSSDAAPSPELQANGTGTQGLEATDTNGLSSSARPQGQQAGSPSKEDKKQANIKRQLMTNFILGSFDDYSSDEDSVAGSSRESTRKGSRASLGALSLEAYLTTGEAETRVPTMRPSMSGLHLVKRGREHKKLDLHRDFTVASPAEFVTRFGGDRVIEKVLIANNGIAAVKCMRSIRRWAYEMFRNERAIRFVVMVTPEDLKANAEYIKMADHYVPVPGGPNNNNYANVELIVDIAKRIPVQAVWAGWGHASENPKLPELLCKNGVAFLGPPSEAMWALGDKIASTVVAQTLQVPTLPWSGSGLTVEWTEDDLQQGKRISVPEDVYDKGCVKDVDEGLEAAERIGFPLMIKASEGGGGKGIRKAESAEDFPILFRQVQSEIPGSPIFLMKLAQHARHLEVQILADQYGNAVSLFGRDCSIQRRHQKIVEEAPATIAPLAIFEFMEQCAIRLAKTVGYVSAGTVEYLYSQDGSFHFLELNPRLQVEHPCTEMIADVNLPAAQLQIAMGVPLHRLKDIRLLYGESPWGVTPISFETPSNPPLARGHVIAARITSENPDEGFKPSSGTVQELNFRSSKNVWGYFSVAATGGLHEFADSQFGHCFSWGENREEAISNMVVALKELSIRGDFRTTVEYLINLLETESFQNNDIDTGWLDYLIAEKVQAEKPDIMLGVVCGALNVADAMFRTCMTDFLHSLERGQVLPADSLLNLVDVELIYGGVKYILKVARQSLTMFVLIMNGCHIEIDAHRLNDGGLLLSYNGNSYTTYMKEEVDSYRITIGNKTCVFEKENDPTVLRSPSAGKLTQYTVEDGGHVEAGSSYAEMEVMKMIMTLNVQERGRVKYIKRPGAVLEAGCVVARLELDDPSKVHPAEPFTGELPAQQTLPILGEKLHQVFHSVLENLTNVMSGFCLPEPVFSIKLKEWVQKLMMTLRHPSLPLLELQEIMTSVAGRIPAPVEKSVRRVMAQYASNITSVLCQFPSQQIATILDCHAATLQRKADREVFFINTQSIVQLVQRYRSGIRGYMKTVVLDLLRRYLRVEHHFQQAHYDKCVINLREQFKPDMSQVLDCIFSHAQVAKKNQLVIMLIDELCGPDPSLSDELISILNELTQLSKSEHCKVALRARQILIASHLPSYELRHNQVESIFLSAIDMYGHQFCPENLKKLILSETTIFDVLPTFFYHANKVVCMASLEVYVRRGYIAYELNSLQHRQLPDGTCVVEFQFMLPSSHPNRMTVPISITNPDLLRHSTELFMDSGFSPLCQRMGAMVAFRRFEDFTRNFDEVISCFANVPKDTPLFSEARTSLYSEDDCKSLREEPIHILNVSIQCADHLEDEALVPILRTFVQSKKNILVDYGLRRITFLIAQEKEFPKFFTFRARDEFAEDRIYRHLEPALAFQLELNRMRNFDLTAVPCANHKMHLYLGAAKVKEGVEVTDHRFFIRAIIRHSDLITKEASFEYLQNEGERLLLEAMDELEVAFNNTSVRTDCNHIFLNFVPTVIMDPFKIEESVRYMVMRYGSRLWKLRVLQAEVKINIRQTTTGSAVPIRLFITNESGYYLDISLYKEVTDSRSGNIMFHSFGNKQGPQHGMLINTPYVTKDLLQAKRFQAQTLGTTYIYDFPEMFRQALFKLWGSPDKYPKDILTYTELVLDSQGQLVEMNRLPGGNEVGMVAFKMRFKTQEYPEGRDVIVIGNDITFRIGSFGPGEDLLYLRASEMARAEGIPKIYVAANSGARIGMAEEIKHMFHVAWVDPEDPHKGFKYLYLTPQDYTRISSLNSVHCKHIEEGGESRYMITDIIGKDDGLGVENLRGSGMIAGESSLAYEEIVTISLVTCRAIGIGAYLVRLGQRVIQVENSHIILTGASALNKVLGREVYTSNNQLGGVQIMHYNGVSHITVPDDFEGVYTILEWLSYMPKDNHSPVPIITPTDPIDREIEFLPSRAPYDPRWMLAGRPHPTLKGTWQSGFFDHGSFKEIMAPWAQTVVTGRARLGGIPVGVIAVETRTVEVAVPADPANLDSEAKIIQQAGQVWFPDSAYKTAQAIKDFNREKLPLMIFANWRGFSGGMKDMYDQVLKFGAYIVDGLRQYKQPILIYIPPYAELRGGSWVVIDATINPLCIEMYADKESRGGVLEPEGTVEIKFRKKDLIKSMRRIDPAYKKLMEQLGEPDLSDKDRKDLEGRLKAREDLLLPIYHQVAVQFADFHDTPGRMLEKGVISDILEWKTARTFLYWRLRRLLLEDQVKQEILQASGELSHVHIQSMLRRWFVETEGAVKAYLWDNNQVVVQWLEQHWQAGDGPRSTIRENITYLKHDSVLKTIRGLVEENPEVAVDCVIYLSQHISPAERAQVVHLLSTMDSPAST

Question: Which IC50 [1] does the source give for `CC(C)n1ncc2c1C(=O)CC1(CCN(C(=O)c3cc4c(-c5ccc(C(=O)O)cc5)nccc4[nH]3)CC1)C2` [Example 30, 4-{2-[(1-isopropyl-7-oxo-1,4,6,7-tetrahydro-1′H-spiro[indazole-5,4′-piperidin]-1′-yl)carbonyl]-1H-pyrrolo[3,2-c]pyridin-4-yl}benzoic acid] here?
Answer: The IC50 was 0.0161 µM.

Question: And the IC50 [2]?
Answer: The IC50 was 0.0188 µM.

Question: Which IC50 [1] does the source give for `CC(C)n1ncc2c1C(=O)CC1(CCN(C(=O)c3cc(-c4ccc(C(=O)O)cc4)nc(N(C)C)c3)CC1)C2` [Example 33, 4-{6-(dimethylamino)-4-[(1-isopropyl-7-oxo-1,4,6,7-tetrahydro-1′H-spiro[indazole-5,4′-piperidin]-1′-yl)carbonyl]pyridin-2-yl}benzoic acid] here?
Answer: Its IC50 is 0.0163 µM.

Question: What about the IC50 [2] of the same molecule?
Answer: Its IC50 is 0.0087 µM.

Question: For `CC(C)n1ncc2c1C(=O)CC1(CCN(C(=O)c3cc(C(=O)O)cc(-c4ncco4)c3)CC1)C2` [Example 22, 3-[(1-isopropyl-7-oxo-1,4,6,7-tetrahydro-1′H-spiro[indazole-5,4′-piperidin]-1′-yl)carbonyl]-5-(1,3-oxazol-2-yl)benzoic acid], which IC50 [1] is on record?
Answer: The IC50 was 1.01 µM.

Question: And the IC50 [2]?
Answer: Its IC50 is 0.685 µM.

Question: With `CC(C)n1ncc2c1C(=O)CC1(CCN(C(=O)c3cc4c(-c5cccc(C(=O)O)c5)nccc4[nH]3)CC1)C2` [Example 35, 3-{2-[(1-isopropyl-7-oxo-1,4,6,7-tetrahydro-1′H-spiro[indazole-5,4′-piperidin]-1′-yl)carbonyl]-1H-pyrrolo[3,2-c]pyridin-4-yl}benzoic acid] as the molecule, how does the IC50 [1] read?
Answer: Its IC50 is 0.0326 µM.

Question: What about the IC50 [2] of the same molecule?
Answer: The IC50 was 0.0125 µM.

Question: For `CC(C)n1ncc2c1C(=O)CC1(CCN(C(=O)c3cc4ccc(-c5cccc(C(=O)O)c5)cc4[nH]3)CC1)C2` [Example 41, 3-{2-[(1-isopropyl-7-oxo-1,4,6,7-tetrahydro-1′H-spiro[indazole-5,4′-piperidin]-1′-yl)carbonyl]-1H-indol-6-yl}benzoic acid], which IC50 [1] is on record?
Answer: The IC50 was 0.0086 µM.

Question: What about the IC50 [2] of the same molecule?
Answer: The IC50 was 0.0152 µM.

Question: Which IC50 [1] does the source give for “3-{5-[(1-isopropyl-7-oxo-1,4,6,7-tetrahydro-1′H-spiro[indazole-5,4′-piperidin]-1′-yl)carbonyl]-6-(methylamino)pyridin-2-yl}benzoic acid [Example 5]” here?
Answer: The IC50 was 0.163 µM.

Question: What about the IC50 [2] of the same molecule?
Answer: Its IC50 is 0.114 µM.

Question: For `CC(C)(C)n1ncc2c1C(=O)CC1(CCN(C(=O)c3ccc(OCc4ccc(C(=O)O)cc4)cc3)CC1)C2` [Example 1, 4-((4-(1-Tert-butyl-7-oxo-1,4,6,7-tetrahydrospiro[indazole-5,4′-piperidine]-1′-ylcarbonyl)phenoxy)methyl)benzoic acid], which IC50 [1] is on record?
Answer: The IC50 was 0.176 µM.

Question: What about the IC50 [2] of the same molecule?
Answer: Its IC50 is 0.184 µM.

Question: What does the source list for `CCNc1nc(-c2cccc(C(=O)O)c2)ccc1C(=O)N1CCC2(CC1)CC(=O)c1c(cnn1C(C)(C)C)C2` [Example 19, 3-{5-[(1-tert-butyl-7-oxo-1,4,6,7-tetrahydro-1′H-spiro[indazole-5,4′-piperidin]-1′-yl)carbonyl]-6-(ethylamino)pyridin-2-yl}benzoic acid]?
Answer: IC50 [1]: 0.837 µM; IC50 [2]: 0.487 µM

Question: How did the IC50 [1] turn out when `CNc1nc(-c2ccc(C(=O)O)cc2)ccc1C(=O)N1CCC2(CC1)CC(=O)c1c(cnn1C(C)C)C2` [Example 8, 4-{5-[(1-isopropyl-7-oxo-1,4,6,7-tetrahydro-1′H-spiro[indazole-5,4′-piperidin]-1′-yl)carbonyl]-6-(methylamino)pyridin-2-yl}benzoic acid] was run?
Answer: The IC50 was 0.156 µM.

Question: And the IC50 [2]?
Answer: The IC50 was 0.175 µM.

Question: Which IC50 [1] does the source give for “4-{6-(ethylamino)-5-[(1-isopropyl-7-oxo-1,4,6,7-tetrahydro-1′H-spiro[indazole-5,4′-piperidin]-1′-yl)carbonyl]pyridin-2-yl}benzoic acid [Example 14]” here?
Answer: Its IC50 is 0.139 µM.

Question: And the IC50 [2]?
Answer: The IC50 was 0.0761 µM.

Question: Which results are given for `CC(C)Nc1nc(-c2ccc(C(=O)O)cc2)ccc1C(=O)N1CCC2(CC1)CC(=O)c1c(cnn1C(C)(C)C)C2` [Example 24, 4-{5-[(1-tert-butyl-7-oxo-1,4,6,7-tetrahydro-1′H-spiro[indazole-5,4′-piperidin]-1′-yl)carbonyl]-6-(isopropylamino)pyridin-2-yl}benzoic acid]?
Answer: IC50 [1]: 3.14 µM; IC50 [2]: 0.557 µM

Question: What does the source list for `CC(C)n1ncc2c1C(=O)CC1(CCN(C(=O)c3cc(-c4ccc(C(=O)O)cc4)c4cn[nH]c4c3)CC1)C2` [Example 26, 4-{6-[(1-isopropyl-7-oxo-1,4,6,7-tetrahydro-1′H-spiro[indazole-5,4′-piperidin]-1′-yl)carbonyl]-1H-indazol-4-yl}benzoic acid]?
Answer: IC50 [1]: 0.0204 µM; IC50 [2]: 0.00749 µM

Question: How did the IC50 [1] turn out when `CC(C)n1ncc2c1C(=O)CC1(CCN(C(=O)c3cc4c(-c5cccc(C(=O)O)c5)ccnc4[nH]3)CC1)C2` [Example 28, 3-{2-[(1-isopropyl-7-oxo-1,4,6,7-tetrahydro-1′H-spiro[indazole-5,4′-piperidin]-1′-yl)carbonyl]-1H-pyrrolo[2,3-b]pyridin-4-yl}benzoic acid] was run?
Answer: Its IC50 is 0.0067 µM.

Question: And the IC50 [2]?
Answer: The IC50 was 0.00535 µM.

Question: How did the IC50 [1] turn out when `CC(C)n1ncc2c1C(=O)CC1(CCN(C(=O)c3cc(-c4ccc(C(=O)O)cc4)[nH]c(=O)c3)CC1)C2` [Example 27, 4-{4-[(1-isopropyl-7-oxo-1,4,6,7-tetrahydro-1′H-spiro[indazole-5,4′-piperidin]-1′-yl)carbonyl]-6-oxo-1,6-dihydropyridin-2-yl}benzoic acid] was run?
Answer: The IC50 was 2.91 µM.

Question: And the IC50 [2]?
Answer: The IC50 was 1.14 µM.

Source: US11673890B2, “N1-pyrazolospiroketone acetyl-CoA carboxylase inhibitors” (Pfizer Inc., priority 2010, dated 2023)
